Columns and labels:
Format in all cases: in vivo
[1] = system: Sunflower; experiment: Test C preemergence; settings: Rate 62 g/ha, scale 0 to 100
[2] = system: Nightshade; experiment: Test C preemergence; settings: Rate 500 g/ha, visual evaluation after 12 to 14 days
[3] = system: cocklebur (Xanthium strumarium); experiment: Test B preemergence
In short: (§1)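 Post-treatment, species sat 13–15 days under greenhouse conditions before visual scoring against controls, 0 (no effect) through 100 (complete control). Application preemergence to sown seeds or postemergence at 1- to 4-leaf stage, using a non-phytotoxic solvent/surfactant formulation.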

[4] = system: rice (Oryza saliva); experiment: Test B preemergence
In short: as §1

[5] = system: velvetleaf (Abutilon theophrasti); experiment: Test B preemergence
In short: as §1

[6] = system: lambsquarters (Chenopodium album); experiment: Test B preemergence
In short: as §1

[7] = system: barnyardgrass (Echinochloa crus-galli); experiment: Test B preemergence
In short: as §1

[8] = system: crabgrass (Digitaria sanguinalis); experiment: Test B preemergence
In short: as §1

[9] = system: Surinam grass (Brachiaria decumbens); experiment: Test B preemergence
In short: as §1

[10] = system: giant foxtail (Setaria faberii); experiment: Test B preemergence
In short: as §1

[11] = system: corn (Zea mays); experiment: Test B preemergence
In short: as §1

[12] = system: pigweed (Amaranthus retroflexus); experiment: Test B preemergence
In short: as §1

[13] = system: morning glory (Ipomoea hederacea); experiment: Test B preemergence
In short: as §1

[14] = system: cocklebur (Xanthium strumarium); experiment: Test B postemergence
In short: as §1

[15] = system: lambsquarters (Chenopodium album); experiment: Test B postemergence; settings: Rate 125 g/ha, scale 0 to 100, 0 no effect, 100 complete control
In short: as §1

[16] = system: barnyardgrass (Echinochloa crus-galli); experiment: Test B postemergence
In short: as §1

[17] = system: crabgrass (Digitaria sanguinalis); experiment: Test B postemergence; settings: Rate 125 g/ha, scale 0 to 100, 0 no effect, 100 complete control
In short: as §1

[18] = system: Surinam grass (Brachiaria decumbens); experiment: Test B postemergence
In short: as §1

[19] = system: giant foxtail (Setaria faberii); experiment: Test B postemergence; settings: Rate 125 g/ha, scale 0 to 100, 0 no effect, 100 complete control
In short: as §1

[20] = system: pigweed (Amaranthus retroflexus); experiment: Test B postemergence; settings: Rate 125 g/ha, scale 0 to 100, 0 no effect, 100 complete control
In short: as §1

[21] = system: morning glory (Ipomoea hederacea); experiment: Test B postemergence; settings: Rate 125 g/ha, scale 0 to 100, 0 no effect, 100 complete control
In short: as §1

[22] = system: rice (Oryza saliva); experiment: Test C flooded paddy test; settings: for Rice plant response rating: Flooded Paddy, scale 0 to 100, 0 no effect, 100 complete control; for Plant response rating, Rice / Plant response rating (scale 0 to 100), Rice: flooded paddy test; for Plant response rating, Rice: scale 0 to 100 (0 no effect, 100 complete control)
In short: (§2)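 Plants were grown to the 2-leaf stage under flooded paddy conditions and treated. They were then kept in a greenhouse for 12 to 14 days and visually rated against untreated controls on a 0–100 scale, where 0 is no effect and 100 is complete control.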

[23] = system: smallflower flatsedge (Cyperus difformis); experiment: Test C flooded paddy test; settings: for Flatsedge plant response rating: Flooded Paddy, scale 0 to 100, 0 no effect, 100 complete control; for Plant response rating, Flatsedge / Plant response rating (scale 0 to 100), Flatsedge: flooded paddy test; for Plant response rating, Flatsedge: scale 0 to 100 (0 no effect, 100 complete control)
In short: as §2

[24] = system: barnyardgrass (Echinochloa crus-galli); experiment: Test C flooded paddy test; settings: for Barnyardgrass plant response rating: Flooded Paddy, scale 0 to 100, 0 no effect, 100 complete control; for Plant response rating, Barnyardgrass / Plant response rating (scale 0 to 100), Barnyardgrass: flooded paddy test; for Plant response rating, Barnyardgrass: scale 0 to 100 (0 no effect, 100 complete control)
In short: as §2

[25] = system: duck salad (Heteranthera limosa); experiment: Test C flooded paddy test; settings: for Ducksalad plant response rating: Flooded Paddy, scale 0 to 100, 0 no effect, 100 complete control; for Plant response rating, Ducksalad / Plant response rating (scale 0 to 100), Ducksalad: flooded paddy test; for Plant response rating, Ducksalad: scale 0 to 100 (0 no effect, 100 complete control)
In short: as §2

[26] = system: Sunflower; experiment: Test C preemergence; settings: Rate 250 g/ha, scale 0 to 100, 0 no effect, 100 complete control
[27] = Preemergence, Rate 500 g/ha, scale 0 to 100, 0 no effect, 100 complete control
[28] = preemergence, Rate 125 g/ha, scale of 0 to 100 where 0 is no effect and 100 is complete control, 13 to 15 days
[29] = Rate 125 g/ha, scale 0 to 100, 0 no effect, 100 complete control
[30] = Rate 500 g/ha, scale 0 to 100, 0 is no effect, 100 is complete control, 13 to 15 days
[31] = Rate 16 g/ha, visually evaluated after 12 to 14 days, 0 = no effect, 100 = complete control
[32] = Rate 62 g/ha, visually evaluated after 12 to 14 days, 0 = no effect, 100 = complete control
[33] = under head Rate 16 g/ha, (own rate not given), after 12 to 14 days

CCC(CC)c1ccn(C2OCN(c3cccc(OC(F)F)c3)C2=O)n1 (stereo not drawn) [Compound 131]
40: Plant response rating, Velvetleaf [5, 27] | Plant response rating, Corn [11, 28]
80: Plant response rating, Barnyardgrass [16, 29] | Plant response rating, Pigweed [20] | Rice plant response rating ([22]; Rate 250 g/ha) | Plant response rating (scale 0 to 100), Ducksalad [25, 32]
50: Plant response rating, Corn [11, 27] | Plant response rating (scale 0 to 100), Barnyardgrass [24, 33]
90: Plant response rating, Morningglory [13, 27] | Plant response rating, Lambsquarters [15] | Rice plant response rating ([22]; Rate 500 g/ha) | Plant response rating (scale 0 to 100), Flatsedge [23, 31] | Plant response rating (scale 0 to 100), Flatsedge [23, 32] | Plant response rating (scale 0 to 100), Flatsedge [23, 33]
30: Plant response rating, Cocklebur [3, 27] | Plant response rating, Cocklebur [14, 29] | Plant response rating, Surinam grass [18, 30]
20: Plant response rating, Sunflower [1] | Plant response rating, Foxtail, Giant [19] | Plant response rating, Morningglory [21] | Plant response rating (scale 0 to 100), Ducksalad [25, 33] | Plant response rating, Sunflower [26]
0: Plant response rating, Cocklebur [3, 28] | Plant response rating, Velvetleaf [5, 28] | Plant response rating, Morningglory [13, 28] | Plant response rating, Crabgrass [17] | Plant response rating, Surinam grass [18, 29] | Plant response rating (scale 0 to 100), Rice [22, 31] | Plant response rating (scale 0 to 100), Rice [22, 32] | Plant response rating (scale 0 to 100), Rice [22, 33]
100: Plant response rating (0 to 100), Nightshade [2] | Plant response rating, Rice [4, 27] | Plant response rating, Lambsquarters [6, 27] | Plant response rating, Lambsquarters [6, 28] | Plant response rating, Barnyardgrass [7, 27] | Plant response rating, Barnyardgrass [7, 28] | Plant response rating, Crabgrass [8, 27] | Plant response rating, Crabgrass [8, 28] | Plant response rating, Surinam grass [9, 27] | Plant response rating, Surinam grass [9, 28] | Plant response rating, Foxtail, Giant [10, 27] | Plant response rating, Foxtail, Giant [10, 28] | Plant response rating, Pigweed [12, 27] | Plant response rating, Pigweed [12, 28] | Plant response rating, Barnyardgrass [16, 30] | Flatsedge plant response rating ([23]; Rate 250 g/ha) | Flatsedge plant response rating ([23]; Rate 500 g/ha) | Plant response rating, Flatsedge ([23]; Rate 125 g/ha) | Barnyardgrass plant response rating ([24]; Rate 250 g/ha) | Barnyardgrass plant response rating ([24]; Rate 500 g/ha) | Plant response rating, Barnyardgrass ([24]; Rate 125 g/ha) | Plant response rating (scale 0 to 100), Barnyardgrass [24, 32] | Ducksalad plant response rating ([25]; Rate 250 g/ha) | Ducksalad plant response rating ([25]; Rate 500 g/ha) | Plant response rating, Ducksalad ([25]; Rate 125 g/ha)
15: Plant response rating, Rice ([22]; Rate 125 g/ha)
60: Plant response rating (scale 0 to 100), Barnyardgrass [24, 31]
70: Plant response rating, Rice [4, 28] | Plant response rating, Cocklebur [14, 30] | Plant response rating (scale 0 to 100), Ducksalad [25, 31]

COc1cc(N2CCC(n3ccc(C(C)(C)C)n3)C2=O)ccc1Cl (stereo not drawn) [Compound 117]
60: Plant response rating, Sunflower [26]
100: Plant response rating (0 to 100), Nightshade [2] | Plant response rating, Cocklebur [3, 27] | Plant response rating, Velvetleaf [5, 27] | Plant response rating, Lambsquarters [6, 27] | Plant response rating, Lambsquarters [6, 28] | Plant response rating, Barnyardgrass [7, 27] | Plant response rating, Barnyardgrass [7, 28] | Plant response rating, Crabgrass [8, 27] | Plant response rating, Crabgrass [8, 28] | Plant response rating, Surinam grass [9, 27] | Plant response rating, Surinam grass [9, 28] | Plant response rating, Foxtail, Giant [10, 27] | Plant response rating, Foxtail, Giant [10, 28] | Plant response rating, Pigweed [12, 27] | Plant response rating, Pigweed [12, 28] | Plant response rating, Morningglory [13, 27] | Plant response rating, Cocklebur [14, 30] | Flatsedge plant response rating ([23]; Rate 250 g/ha) | Flatsedge plant response rating ([23]; Rate 500 g/ha) | Plant response rating, Flatsedge ([23]; Rate 62 g/ha) | Plant response rating, Flatsedge ([23]; Rate 125 g/ha) | Ducksalad plant response rating ([25]; Rate 250 g/ha) | Ducksalad plant response rating ([25]; Rate 500 g/ha) | Plant response rating, Ducksalad ([25]; Rate 125 g/ha)
0: Plant response rating, Rice [4, 28] | Plant response rating, Foxtail, Giant [19] | Plant response rating, Ducksalad ([25]; Rate 62 g/ha)
35: Plant response rating, Sunflower [1]
90: Plant response rating, Cocklebur [14, 29] | Plant response rating, Lambsquarters [15] | Plant response rating, Barnyardgrass [16, 30] | Barnyardgrass plant response rating ([24]; Rate 250 g/ha) | Barnyardgrass plant response rating ([24]; Rate 500 g/ha)
20: Plant response rating, Corn [11, 28] | Plant response rating, Rice ([22]; Rate 62 g/ha)
40: Plant response rating, Velvetleaf [5, 28] | Plant response rating, Barnyardgrass [16, 29] | Plant response rating, Surinam grass [18, 30] | Plant response rating, Barnyardgrass ([24]; Rate 62 g/ha)
70: Plant response rating, Cocklebur [3, 28] | Plant response rating, Rice [4, 27] | Plant response rating, Morningglory [21]
80: Plant response rating, Morningglory [13, 28] | Plant response rating, Pigweed [20] | Plant response rating, Barnyardgrass ([24]; Rate 125 g/ha)
30: Plant response rating, Corn [11, 27] | Plant response rating, Crabgrass [17] | Plant response rating, Surinam grass [18, 29] | Rice plant response rating ([22]; Rate 500 g/ha) | Plant response rating, Rice ([22]; Rate 125 g/ha)
